What was measured:
[1] = for effect on lattice constant of cubic phase, autoclaved dispersions / effect on particle size of autoclaved dispersions: autoclaved 121° C., 15+5 min; for influence on non-autoclaved dispersions: chloramphenicol 0.3, 1 and 2%, miconazole 0.3 and 1%; for influence of drug on properties of the dispersions: 0.3% drug, GMOrphic/12% P407, non-autoclaved and autoclaved
Description: All drug concentrations are indicated relative to the sum of monoglyceride and poloxamer. A drug-free dispersion was prepared and investigated as a reference.
All dispersions were autoclaved at 121° C. for 15+5 min. (allowing for temperature equilibration in the autoclave) and their properties were compared to that of the corresponding non-autoclaved dispersions.

[2] = Active agent loading of cubic particles; format: physicochemical
Description: To the dispersions is added the cationic peptide desmopressin to a concentration of 1 mg/ml. The dispersion is allowed to equilibrate for 60 minutes at room temperature and reanalyzed for particle size and optionally phase behaviour. The particle size is not affected as determined using laser diffraction.
A dispersion of cubic particles of formulation GMO/OA/F-127 (84.5:4.5:10) was prepared as in Example 24. The steroid hormone progesterone was incubated with the cubic particles at room temperature as described for desmopressin in Example 22. The equilibrium loading level was 3% by weight.
The above method was repeated by the active agent progesterone was included in the aqueous phase prior to the homogenisation and heat treatment steps. The loading level was again examined and established to be 18 wt %. The effect upon the particle size distribution was minimal.

| SMILES | effect on lattice constant of cubic phase, autoclaved dispersions [1] | effect on particle size of autoclaved dispersions [1] | influence on non-autoclaved dispersions [1] | influence of drug on properties of the dispersions [1] | also measured |
| --- | --- | --- | --- | --- | --- |
| COC1=C(OC)C(=O)C(C/C=C(\C)CC/C=C(\C)CC/C=C(\C)CC/C=C(\C)CC/C=C(\C)CC/C=C(\C)CC/C=C(\C)CC/C=C(\C)CC/C=C(\C)CCC=C(C)C)=C(C)C1=O [Ubidecarenone, ubidecarenone] | – | – | – | did not influence the properties of the resulting dispersions | – |
| CC(=O)Oc1c(C)c(C)c2c(c1C)CCC(C)(CCC[C@H](C)CCC[C@H](C)CCCC(C)C)O2 (some centres unmarked) [tocopherol acetate] | – | – | – | did not influence the properties of the resulting dispersions | – |
| CCCCC(=O)O[C@]1(C(=O)CO)[C@@H](C)C[C@H]2[C@@H]3CCC4=CC(=O)C=C[C@]4(C)[C@@]3(F)[C@@H](O)C[C@@]21C [betamethasone-17-valerate] | – | – | – | – | influence of drug on general behaviour of the dispersions ([1]; 0.3, 1 or 2% drug): no influence on the general behaviour of the dispersions |
| CC(=O)[C@H]1CC[C@H]2[C@@H]3CCC4=CC(=O)CC[C@]4(C)[C@H]3CC[C@]12C [progesterone] | – | – | – | – | loading level ([2]; included in aqueous phase prior to homogenisation and heat treatment, GMO/OA/F-127 (84.5:4.5:10)): 18 wt %; equilibrium loading level ([2]; incubated with GMO/OA/F-127 (84.5:4.5:10) cubic particles at room temperature): 3 % by weight |

Further lines, with some results ahead:

| effect on lattice constant of cubic phase, autoclaved dispersions [1] | SMILES | effect on particle size of autoclaved dispersions [1] | influence on non-autoclaved dispersions [1] | influence of drug on properties of the dispersions [1] | also measured |
| --- | --- | --- | --- | --- | --- |
| slight increase in lattice constant | O=C(N[C@H](CO)[C@H](O)c1ccc([N+](=O)[O-])cc1)C(Cl)Cl [chloramphenicol] | particle sizes increased distinctly with drug concentration | no influence on the non-autoclaved dispersions | – | – |
| decreased slightly | Clc1ccc(COC(Cn2ccnc2)c2ccc(Cl)cc2Cl)c(Cl)c1 (centres unmarked) [miconazole] | slightly larger (0.3%) and distinctly larger (1%) particle sizes | no influence on the non-autoclaved dispersions | – | – |
